Experimental data reported in patent US9546151B2, “VMAT inhibitory compounds” (Oregon Health & Science University, priority 2014, dated 2017).
Where two headings read alike, the source gives them in different places.

How the values were obtained:
VMAT2 [1] = molecular target: T1, VMAT2 (Homo sapiens, UniProt Q05940); assay: hVMAT2 [3H]DTBZ ([3H]DHTB) binding assay; parameters: expressed in transfected cells; host or cells: HEK (human embryonic kidney) cells; details: HEK-hVMAT2 membranes
Protocol: (§1) Membrane preparation for binding, uptake and release assays using HEK-hVMAT2 cells: Human embryonic kidney cells expressing the human vesicular monoamine transporter 2 (HEK-hVMAT2) were used. HEK-hVMAT2 cells were grown until confluent. The media was removed from plates, solution A [sucrose (0.32 M) with protease inhibitors] was added to the plate, and cells were scraped from plate. Cells were homogenized with 12 strokes of a glass/glass homogenizer. The homogenate was centrifuged at 800×g for 10 min. The supernatant was removed and saved, and the pellet was resuspended, homogenized and centrifuged as above. The supernatants were combined and centrifuged at 10,000×g for 20 min. The pellet was resuspended in solution A (0.75 ml). The membranes were osmotically shocked by addition of 2.625 ml ice cold water and homogenized by 5 strokes of a glass/Teflon homogenizer. The osmolarity was reestablished with addition of Tris (338 μl, 0.25M, pH 7.4 at 4° C.), sodium potassium tartrate (338 μl, 1.0 M), and MgSO4 (4 μl, 0.9M). The homogenate was centrifuged at 20,000×g for 20 min.
Binding was terminated by filtration over Whatman GF/C filters using a Tomtec 96-well cell harvester. Filters were washed for six seconds with ice-cold saline. Scintillation fluid was added to each square and radioactivity remaining on the filters was determined using a Wallac μ- or beta-plate reader. Specific binding was defined as the difference in binding observed in the presence and absence of Ro4-1284 (10 μM, generously supplied by Hoffman LaRoche). Three or more independent competition experiments were conducted with duplicate determinations.

VMAT2 [2] = molecular target: T1, VMAT2; assay: hVMAT2 5HT Uptake; assay type: biochemical; parameters: expressed in transfected cells; host or cells: HEK (human embryonic kidney) cells; details: read-out: hVMAT2 5HT Uptake IC50 (nM) ± SEM
Protocol: as §1

[3] = cells printed in μM under a head in nM
[4] = [^3H]5HT uptake, HEK-hVMAT2 preparation

T1 sequence (Q05940 whole entry): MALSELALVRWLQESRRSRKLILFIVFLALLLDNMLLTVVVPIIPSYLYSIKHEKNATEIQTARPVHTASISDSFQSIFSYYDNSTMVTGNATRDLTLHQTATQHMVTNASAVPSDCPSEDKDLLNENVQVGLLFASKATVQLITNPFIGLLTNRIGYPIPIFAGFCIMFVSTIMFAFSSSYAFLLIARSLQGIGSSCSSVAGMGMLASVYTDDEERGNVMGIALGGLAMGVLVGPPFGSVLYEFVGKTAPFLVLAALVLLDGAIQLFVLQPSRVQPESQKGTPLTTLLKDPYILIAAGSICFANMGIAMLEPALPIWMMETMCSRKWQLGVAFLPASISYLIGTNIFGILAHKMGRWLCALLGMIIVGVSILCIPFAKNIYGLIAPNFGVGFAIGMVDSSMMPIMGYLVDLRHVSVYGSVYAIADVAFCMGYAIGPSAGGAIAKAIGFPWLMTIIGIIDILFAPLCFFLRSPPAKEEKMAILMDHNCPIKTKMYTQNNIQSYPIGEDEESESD

Structure (SMILES)	Ki (VMAT2 [1]; [3]) [µM]	IC50 (VMAT2 [2]; [3]) [µM]	IC50 (VMAT2 [2]; [4]) [µM]	Ki (VMAT2 [1]; series 5 ligands tested as hydrochloride salts) [µM]
CCOC(=O)[C@H]1CN(CCn2c(=O)[nH]c3ccccc3c2=O)CC[C@H]1c1ccccc1N(C)C (racemic) [Compound 5bb, (±)-syn-Ethyl 4-(2-(dimethylamino)phenyl)-1-(2-(2,4-dioxo-1,2-dihydroquinazolin-3(4H),-yl)ethyl) piperidine-3-carboxylate]	> 6	> 2		
CCOC(=O)[C@H]1CN(CCn2c(=O)[nH]c3ccccc3c2=O)CC[C@H]1c1cccc(N=[N+]=[N-])c1 (racemic) [Compound 5cc, (±)-syn-Ethyl 4-(3-azidophenyl)-1-(2-(2,4-dioxo-1,2-dihydroquinazolin-3(4H)-yl)ethyl)piperidine-3-carboxylate]	> 7		0.074 ± 0.011	
CCOC(=O)[C@H]1CN(CCn2c(=O)[nH]c3ccccc3c2=O)CC[C@H]1c1ccc(OC)c(OC)c1 (racemic) [Compound 5dd, (±)-syn-Ethyl 4-(3,4-dimethoxyphenyl)-1-(2-(2,4-dioxo-1,2-dihydroquinazolin-3(4H),-yl)ethyl) piperidine-3-carboxylate]	> 10	> 3		
CCOC(=O)[C@H]1CN(CCn2c(=O)[nH]c3ccccc3c2=O)CC[C@H]1c1ccc(O)c(O)c1 (racemic) [Compound 5ff, (±)-syn-Ethyl 4-(3,4-dihydroxyphenyl)-1-(2-(2,4-dioxo-1,2-dihydroquinazolin-3(4H)-yl)ethyl)piperidine-3-carboxylate]			0.333 ± 0.085	
CCOC(=O)[C@@H]1CN(CCn2c(=O)[nH]c3ccccc3c2=O)CC[C@@H]1c1ccc(C(N)=O)cc1 (racemic) [Compound 5i, (±) syn-ethyl 4-(4-carbamoylphenyl)-1-(2-(2,4-dioxo-1,2-dihydroquinazolin-3(4H)-yl)ethyl)piperidine-3-carboxylate]	> 3	> 10		
CCOC(=O)[C@H]1CN(CCn2c(=O)[nH]c3ccccc3c2=O)CC[C@H]1c1ccc(OC(F)(F)F)cc1 (racemic) [Compound 5ii, (±)-syn-ethyl 1-(2-(2,4-dioxo-1,2-dihydroquinazolin-3(4H)-yl)ethyl)-4-(4-(trifluoromethoxy)phenyl)piperidine-3-carboxylate]	> 5			
CCOC(=O)[C@H]1CN(CCn2c(=O)[nH]c3ccccc3c2=O)CC[C@H]1c1ccc(N)cc1 (racemic) [Compound 5mm, (±)-syn-Ethyl 4-(4-aminophenyl)-1-(2-(2,4-dioxo-1,2-dihydroquinazolin-3(4H),-yl)ethyl) piperidine-3-carboxylate]	> 10		2.15 ± 0.237	
CCOC(=O)[C@H]1CN(CCn2c(=O)[nH]c3ccccc3c2=O)CC[C@H]1c1cccc(OC)c1 (racemic) [Compound 5q, (±)-syn-Ethyl 1-(2-(2,4-dioxo-1,2-dihydroquinazolin-3(4H),-yl)ethyl)-4-(3-methoxyphenyl) piperidine-3-carboxylate]	> 10		0.18 ± 0.054	
CCOC(=O)[C@H]1CN(CCn2c(=O)[nH]c3ccccc3c2=O)CC[C@H]1c1ccc(OC)cc1 (racemic) [Compound 5r, (±)-syn-Ethyl 1-(2-(2,4-dioxo-1,2-dihydroquinazolin-3(4H),-yl)ethyl)-4-(4-methoxyphenyl) piperidine-3-carboxylate]	> 10		0.036 ± 0.011	
CCOC(=O)[C@H]1CN(CCn2c(=O)[nH]c3ccccc3c2=O)CC[C@H]1c1ccc(CC)cc1 (racemic) [Compound 5t, (±)-syn-Ethyl 1-(2-(2,4-dioxo-1,2-dihydroquinazolin-3(4H),-yl)ethyl)-4-(4-ethylphenyl) piperidine-3-carboxylate]			0.906 ± 0.014	> 8.4
CCOC(=O)C1=C(c2ccccc2C(F)(F)F)CCN(CCn2c(=O)[nH]c3ccccc3c2=O)C1 [Compound 5hh, Ethyl 1-(2-(2,4-dioxo-1,2-dihydroquinazolin-3(4H)-yl)ethyl)-4-(2-(trifluoromethyl)phenyl)-1,2,5,6-tetrahydropyridine-3-carboxylate]			0.328 ± 0.038	
